Like-named read-outs stand apart in the source and are kept apart here.
Key:
Experiment in all cases: WST-1 cell viability assay
[1] = tested on: MDA-MB-231 cells; format: cell-based; conditions: co-treatment of 10 μM Compound 5A
Experimental: (§1) Compound Compound 9A was tested for the ability to inhibit the proliferation of Mia-Paca-2 pancreatic cancer cells. Mia-Paca-2 and MDA-MB-231 cells were seeded into the wells of a 96 well tissue culture plate in complete medium (10% fetal calf serum) and incubated overnight at 37° C./5% CO2). The medium was exchanged for fresh medium containing varying concentrations of Compound 9A and the plate was incubated for 72 hours at 37° C./5% CO2. The viability of cells at the end of this incubation was assessed with the WST-1 reagent. To 10 ml of warm (37° C.) complete medium, 1 ml WST-1 reagent was added. The medium from the wells of the plate with the Mia-Paca-2 cells was removed and replaced with 100 μL of the WST-1 reagent in complete medium. The plate was incubated at 37 37° C./5% CO2. At timed intervals the absorbance at 450 nm was determined for each well in a UVNis plate reader. For each well the slope of the plot of the absorbance 450 nm vs time was determined. The readings were normalized to that of the wells for the untreated control and a dose-response curve was plotted. A fit to the data was made from a four parameter, variable slope program (GraphPad Prism) and the IC50 was determined.
The TNBC cell line MDA-MB-231 express high levels of Mcl-1 and USP9X in addition to Bcl-2 and Bcl-xL. MDA-MB-231 cells were treated with ABT737 for 72 hours at varying concentrations and underwent western blot analysis.

[2] = tested on: U937 cells; format: cell-based; conditions: for IC50: Homo sapiens, U-937, 72-hour treatment
Experimental: as §1
The effect of Compound 7A on U937 cells was assessed using the same experiment described in the Inhibitory Activities against the Proliferation of Mia-Paca-2 and Other Cancer Cells section above. In response to treatment with Compound 7A, proliferation of U937 leukemia cells was inhibited and induced apoptosis was obsessed by trypan blue staining.
U937 cells were treated with the Bcl-2/Bcl-xL inhibitor ABT737 72 hours at varying concentrations and underwent western blot analysis.

[3] = tested on: BT-549 cancer cells; format: cell-based, human; conditions: BT-549 cells
Experimental: as §1
The same procedures were also applied to the compounds Compound 7A, Compound 6A, and Compound 8A to test their inhibitory activities against RKO colon, Mia-Paca-2 pancreatic and BT-549 cancer cells.

CN1CCOc2ccc(cc2)C(=O)NCc2cccc(c2)C(=O)N[C@@H](CC(C)(C)C)C(=O)Nc2ccc(cc2)CCN(C)C(=O)CC(C)(C)CC1=O [Compound 5A]
enhancement in ABT737's potency / sensitivity of cells to ABT737 [1]: 5 fold

CN1CCOc2ccc(cc2)C(=O)NCc2ccc(F)c(c2)C(=O)N[C@@H](CC(C)(C)C)C(=O)Nc2ccc(cc2)CCN(C)C(=O)CC(C)(C)CC1=O [Compound 7A]
IC50 ([2]; read-out: IC50 for the inhibition of U937): 270 nM | IC50 ([2]; U937 cells, single agent, read-out: IC50, cell viability): 270 nM | enhancement in ABT737's potency / sensitivity of cells to ABT737 ([2]; U937 cells, co-treatment of 0.5 μM Compound 7A): 57 fold | cell viability decreased to ([2]; U937 cells, when Mcl-1 level decreased by 50%): 0 | cell viability [3]: significant decreases

Source: patent US20240294467A1, “USP9X Inhibitors” (ProDeg, LLC, priority 2021, published 2024)
